Structures can show the parent of a compound that is named as a salt.
Legend:
[1] = biological target: T1, human pancreatic lipase (hPL) (Homo sapiens, UniProt P16233); experiment: Michaelis-Menten kinetics of fluorogenic substrate hydrolysis (Km); assay type: biochemical
T1 construct: gene PNLIP
T1 sequence (P16233 17-465): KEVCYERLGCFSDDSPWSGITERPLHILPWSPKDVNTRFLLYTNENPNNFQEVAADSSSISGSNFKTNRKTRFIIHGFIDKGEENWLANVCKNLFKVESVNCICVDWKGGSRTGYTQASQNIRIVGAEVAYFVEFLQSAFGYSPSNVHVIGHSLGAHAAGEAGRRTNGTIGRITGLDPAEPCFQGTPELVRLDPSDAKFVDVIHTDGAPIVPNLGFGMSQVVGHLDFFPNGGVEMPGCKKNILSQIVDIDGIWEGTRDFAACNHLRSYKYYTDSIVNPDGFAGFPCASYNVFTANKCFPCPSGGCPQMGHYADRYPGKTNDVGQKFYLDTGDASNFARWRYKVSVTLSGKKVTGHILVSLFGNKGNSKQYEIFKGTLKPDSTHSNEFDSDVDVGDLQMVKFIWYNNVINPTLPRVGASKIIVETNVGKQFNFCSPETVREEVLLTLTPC

[2] = biological target: T1, human pancreatic lipase (hPL); details: 10 µM; inhibitor
[3] = biological target: T1, human pancreatic lipase (hPL); experiment: RLE-based fluorescence hydrolysis assay, dose-inhibition; assay type: biochemical

CCCCCCCCCCCC(=O)Oc1ccc2nc3ccc(=O)cc-3oc2c1 [RLE, 3-oxo-3H-phenoxazin-7-yl dodecanoate]
Km [1]: 10.4 µM

O=C(c1ccc(OCCN2CCCCC2)cc1)c1c(-c2ccc(O)cc2)sc2cc(O)ccc12 [d1, raloxifene]
% of control remaining [2]: 4.05%
IC50 [3]: 5.63 µM

CNC(=O)c1cc(Oc2ccc(NC(=O)Nc3ccc(Cl)c(C(F)(F)F)c3)cc2)ccn1 [f1, sorafenib tosylate]
% of control remaining [2]: 44.04%
IC50 [3]: 15.6 µM

CC(C)c1cc2c(c(O)c1O)[C@@]13CCCC(C)(C)[C@@H]1C[C@@H]2OC3=O [h9, carnosol]
% of control remaining [2]: 4.20%
IC50 [3]: 0.58 µM

COc1ccc(-c2cc(=O)c3c(O)cc(O)c(-c4cc(-c5cc(=O)c6c(O)cc(OC)cc6o5)ccc4OC)c3o2)cc1 [h10, sciadopitysin]
% of control remaining [2]: 5.25%
IC50 [3]: 1.36 µM

O=C(O)/C=C/c1ccccc1 [trans-Cinnamic acid]
% of control remaining [2]: 72.50%

Reference: PMC9953885 (Biosensors, 2023)
